Source: PubChem BioAssay (NCI)
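48-hour exposure; five concentrations; linearly interpolated endpoints. TGI marks complete inhibition of growth.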 *1 amine or outer side, *2 acyl side, *3 side chain or, on linkers, in order; H or OH if unused. Where a SMILES comes first, the peptide text is derived from it. Bridges are numbered along the chain shown (N, C = ends). Roman numbers before positions name the chains, in order. [ ]: non-standard residue; d: D form. Actinocin(9to1) = Cc1c2oc3c(C)ccc(C(=O)[*:1])c3nc-2c(C(=O)[*:2])c(N)c1=O; NMeV = CN[CH](C(=O)O)C(C)C; Sar = CNCC(=O)O

Experiments:
Assay in all cases: NCI tumour cell line growth inhibition, 48 h
[1] = test system: U251 CNS
[2] = test system: A498 renal
[3] = test system: K-562 leukemia
[4] = test system: SK-OV-3 ovarian
[5] = test system: BT-549 breast
[6] = test system: CAKI-1 renal
[7] = test system: PC-3 prostate
[8] = test system: SN12C renal
[9] = test system: SK-MEL-2 melanoma
[10] = test system: MDA-N

SMILES | TGI [1] [µM] | TGI [2] [µM] | TGI [3] [µM] | TGI [4] [µM] | TGI [5] [µM] | TGI [6] [µM] | TGI [7] [µM] | TGI [8] [µM] | TGI [9] [µM] | TGI [10] [µM]
Cc1cc(-c2nc3ccccc3s2)ccc1NC(=O)[C@H](C)N | 33.9 | 28.6 | 23.2 | 28.5 | 31.2 | 24 | 26.7 | 27.9 | 34.3 | 24.1
O=c1cc(N2CCCC2)[nH]c(=O)n1-c1cccc(C(F)(F)F)c1 | > 100 | > 100 | > 100 | > 100 | > 100 | > 100 | > 100 | > 100 | > 100 | > 100
CN(C)CCNC(=O)c1cccc2nc3c(nc12)-c1ccccc1C3=O | 45.6 | 29.5 | > 100 | 97 | 29.7 | 66.4 | 35 | 28.9 | 32.4 | 25.7
CCc1ccc2[nH]c(O)c(-c3[nH]c4ccccc4c3N=O)c2c1 | 21.5 | 15 | 97.1 | 12.1 | 20.6 | 19.8 | 19.8 | 18 | 15.3 | 20.5
Cc1sc(/N=C/c2c[nH]c3ccccc23)c(C#N)c1C | 96.4 | 96.7 | > 100 | > 100 | > 100 | > 100 | > 100 | > 100 | > 100 | > 100
Cc1nc2ccc(S(=O)(=O)O)cc2c(=O)n1-c1ccc(C(=O)NN2C(=O)C(Cl)C2c2ccccc2O)cc1 (stereo not given) | > 100 | > 100 | > 100 | > 100 | > 100 | > 100 | > 100 | > 100 | > 100 | > 100
COC(OC)C1OC(CO)C(n2ccc(N)nc2=O)C1O (stereo not given) | > 100 | > 100 | > 100 | > 100 | > 100 | > 100 | > 100 | > 100 | > 100 | > 100
Cc1c2oc3c(C)ccc(C(=O)NC4C(=O)NC(C(C)O)C(=O)N5CCCC5C(=O)N(C)CC(=O)N(C)C(C(C)C)C(=O)OC4C)c3nc-2c(C(=O)NC2C(=O)NC(C(C)O)C(=O)N3CCCC3C(=O)N(C)CC(=O)N(C)C(C(C)C)C(=O)OC2C)c(N)c1=O (stereo not given) (I: TTP[Sar][NMeV] / II: TTP[Sar][NMeV]; ester I:1-I:C, II:1-II:C; linker I:N-II:N via Actinocin(9to1); configuration not given here) | > 100 | 2.71 | 3.43 | > 100 | 1.03 | > 100 | > 100 | > 100 | 1.03 | 11.8
CC[C@H](C)[C@H]1NC(=O)[C@@H](NC(=O)[C@@H](CC(C)C)N(C)CC2CCCN2C(=O)C(C)=O)[C@@H](C)OC(=O)[C@H](Cc2ccc(OC)cc2)N(C)C(=O)C2CCCN2C(=O)[C@H](CC(C)C)NC(=O)[C@@H](C)C(=O)[C@H](C(C)C)OC(=O)C[C@@H]1O (stereo not given in full) | 0.00534 | 0.0146 | 0.0158 | 0.0194 | 0.0135 | 0.338 | 0.00983 | 0.0301 | 0.00703 | 0.02
CC(C)(C)C1(COC(=O)c2ccc(N)cc2)COC1 | > 100 | > 100 | > 100 | > 100 | > 100 | > 100 | > 100 | > 100 | > 100 | > 100
COc1ccc(N=N/C(=N/NC(=O)c2ccccc2)c2ccc(N(CCC#N)CCC#N)cc2C)cc1 | > 100 | > 100 | > 100 | > 100 | > 100 | > 100 | > 100 | > 100 | > 100 | 44.4
COC(=O)/C=C(/C(=O)OC)c1c(C)c(C)c2c(C)cc(C)cc(C)c1-2 | > 100 | > 100 | > 100 | 76.8 | > 100 | > 100 | > 100 | > 100 | > 100 | 4.83
COc1cc(CC2c3cc(OC)c(OC)cc3CCN2C)c(Oc2cc3c(cc2OC)-c2c(O)c(OC)cc4c2C(C3)N(C)CC4)cc1OC (stereo not given) | > 100 | 43 | > 100 | > 100 | 32.4 | 68.4 | 94.6 | 42 | 58.5 | 36.8
O=C1c2c(nc3ccccc3c2-c2ccccc2)CN1Nc1ccccn1 | > 100 | 18.1 | > 100 | > 100 | > 100 | > 86.9 | > 100 | > 100 | > 100 | > 100
COC(=O)/C=C1\CCC(C)(C(=O)NS(=O)(=O)c2ccc(C)cc2)C1(C)C (stereo not given) | > 100 | > 100 | > 100 | > 100 | > 100 | > 100 | > 100 | > 100 | > 100 | > 100
O=[N+]([O-])c1ccc(N=Nc2c(O)c(S(=O)(=O)O)cc3cc(S(=O)(=O)O)ccc23)cc1 | > 100 | > 100 | > 100 | > 100 | > 100 | > 100 | > 100 | > 100 | > 100 | > 100
Nc1ccccc1N/C=C\C(=O)C(Cl)(Cl)Cl | 56.9 | 38.9 | 78.9 | 70.8 | 58.6 | 51.3 | > 100 | 40.2 | 53.7 | 30.9

SMILES | TGI [1] [µM] | TGI [2] [µM] | TGI [3] [µM] | TGI [4] [µM] | TGI [5] [µM] | TGI [6] [µM] | TGI [7] [µM] | TGI [8] [µM] | TGI [9] [µM] | TGI [10] [µM]
CSC1=C(C#N)C(=O)N(c2ccc(C)cc2)C(=S)C1C#N (stereo not given) | > 100 | > 100 | > 100 | > 100 | > 100 | > 100 | > 100 | > 100 | > 100 | > 100
C=CCSC1=N/C(=C\c2ccccc2)C(=O)N1CC=C | > 100 | 83.9 | > 100 | > 100 | > 100 | > 100 | > 75.8 | > 100 | 97.6 | > 100
CSc1c(C#N)c(=O)[nH]c2n[nH]c(C)c12 | > 100 | > 100 | > 100 | > 100 | > 100 | > 100 | > 100 | > 100 | > 100 | > 100
COc1cc(/C=C2\N=C(c3ccccc3)N(c3nc4c(OC)ccc(OC)c4s3)C2=O)cc(OC)c1OC | > 100 | > 100 | > 100 | > 100 | > 100 | > 100 | > 100 | > 100 | > 100 | > 100
O=C1COc2ccc([N+](=O)[O-])cc2C(=O)C1 | > 10 | > 10 | > 10 | > 10 | > 10 | > 10 | > 10 | > 10 | > 10 | > 10
O=S1(=O)c2ccccc2C(=NO)c2ccccc21 | > 100 | > 100 | > 100 | > 100 | > 100 | > 100 | > 100 | > 100 | > 100 | > 100
NC(=S)Nc1[nH]c(=S)nc2c1SC1=N/C(=C\c3ccco3)C(=O)N12 | > 100 | > 100 | > 66.5 | > 100 | > 100 | > 100 | > 100 | > 100 | > 100 | > 100
[N-]=[N+]=CC(=O)OCC1SCCCS1 | > 100 | > 100 | > 100 | > 100 | > 100 | > 100 | > 100 | > 100 | > 100 | > 100
Cc1[nH]c2ccccc2c1C=Nc1ccc(N=Cc2c(C)[nH]c3ccccc23)cc1 | > 100 | > 100 | 47 | > 100 | > 100 | > 100 | > 100 | > 100 | 57.2 | > 100
C(=C\c1ccccc1)/C=N/c1nc2cc3sc(/N=C/C=C/c4ccccc4)nc3cc2s1 | > 100 | > 100 | > 100 | > 100 | > 100 | > 100 | > 100 | > 100 | > 100 | > 100
NC(=O)c1ccc2c(c1)S(=O)(=O)c1ccccc1C2=O | > 100 | > 100 | > 100 | > 100 | > 100 | > 100 | > 100 | > 100 | > 100 | > 100
COC(=O)n1c(=O)n(-c2ccccc2)c(=O)n1C(=O)OC | > 100 | > 100 | > 100 | > 100 | > 100 | > 100 | > 100 | > 100 | > 100 | > 100
O=c1c2cc(I)ccc2nc(Sc2ncccc2[N+](=O)[O-])n1Cc1ccccc1 | > 100 | > 100 | > 100 | > 100 | 64 | > 100 | > 100 | > 100 | 30.8 | > 100
O=c1c(C=Nc2ccc([N+](=O)[O-])cc2)c(O)n(-c2ccccc2)c(=O)n1-c1ccccc1 | > 100 | > 100 | > 100 | > 100 | > 100 | > 100 | > 100 | > 100 | > 100 | > 100
CN(C)Cc1cc(O)c(O)c(CN(C)C)c1 | > 100 | > 100 | > 100 | > 100 | > 100 | > 100 | > 100 | > 100 | > 100 | > 100
C=C(CC[C@@H](C(=O)O)[C@H]1[C@H](O)C[C@@]2(C)C3=CC[C@@H](C(=C)C)[C@](C)(CCC(=O)O)C3=CC[C@]12C)C(C)C | 32.8 | 38.8 | > 100 | 31.9 | 33 | 28.9 | 34.3 | 31.9 | 34.3 | 32
